Counter-ions that a name gives are not always drawn. Active and inactive are the calls of the source. The calls are words filed in the database; no cut-off is given here.
Tests used:
[1] = tested on: Canis familiaris; assay: Antianxiety activity in po dosed dog assessed as ataxia administered as single dose measured up to 24 hrs; assay type: functional; conditions: Canis lupus familiaris, read-out: MED
[2] = tested on: Felis catus; assay: Hypnotic activity in cat assessed as decrease in non-REM sleep time at 0.5 mg/kg administered orally through diet measured for 12 hrs by EEG analysis; assay type: functional; conditions: route oral
[3] = tested on: Rattus norvegicus; assay: Antipsychotic activity in rat assessed as reduction of methamphetamine-induced hyperactivity at 10 mg/kg, po administered prior to methamphetamine challenge relative to vehicle-treated control; assay type: functional; set-up: scale not given: the % may be the effect or the level left
[4] = tested on: Felis catus; assay: Hypnotic activity in cat assessed as increase in total sleep time at 0.5 mg/kg administered orally through diet measured for 12 hrs by EEG analysis; assay type: functional; conditions: route oral
[5] = tested on: Rattus norvegicus; assay: Antiulcer activity in albino Sprague-Dawley rat shay ulcer model assessed as ulcer index scores at 20 mg/kg administered intraduodenally post pyloric ligation measured after 18.5 hrs relative to vehicle-treated control; assay type: functional
[6] = tested on: Rattus norvegicus; assay: Antisecretory activity in Sprague-Dawley rat assessed as decrease in pepsin output at 50 mg/kg, po administered 30 mins prior to pylorus ligation measured after 4 hrs relative to control; assay type: functional; set-up: scale not given: the % may be the effect or the level left
[7] = tested on: Rattus norvegicus; assay: Antiulcer activity in albino Sprague-Dawley rat stress ulcer model assessed as prevention of stress-induced gastric lesions by measuring ulcer index score at 10 mg/kg, po administered 30 mins prior to stress measured after 4 hrs; assay type: functional, Stomach
[8] = tested on: Rattus norvegicus; assay: Analgesic activity in po dosed Sprague-Dawley rat after 15 to 90 mins by tail flick test; assay type: functional
[9] = tested on: Felis catus; assay: Hypnotic activity in cat assessed as increase in total sleep time at 0.25 mg/kg administered orally through diet measured for 12 hrs by EEG analysis; assay type: functional; conditions: route oral
[10] = tested on: Mus musculus; assay: Antianxiety activity in albino BALB/cJ mouse assessed as reduction in footshock-induced fighting behavior at 10 mg/kg, po after 30 to 90 mins; assay type: functional; set-up: scale not given: the % may be the effect or the level left
[11] = tested on: Rattus norvegicus; assay: Antisecretory activity in Sprague-Dawley rat assessed as decrease in acidity at 50 mg/kg, po administered 30 mins prior to pylorus ligation measured after 4 hrs relative to control; assay type: functional; set-up: scale not given: the % may be the effect or the level left
[12] = tested on: Rattus norvegicus; assay: Antiulcer activity in albino Sprague-Dawley rat stress ulcer model assessed as prevention of stress-induced gastric lesions by measuring ulcer index score at 40 mg/kg, po administered 30 mins prior to stress measured after 4 hrs; assay type: functional, Stomach
[13] = organism: Rattus norvegicus; assay: animal or person; assay type: functional; conditions: Charles River, route oral
Description: Antidiarrheal activity in Charles River rat assessed as inhibition of castor oil-induced diarrhea by measuring protected animals at 0.5 mg/kg, po administered 1 hr prior to castor oil challenge measured after 1 hr relative to vehicle-treated control

[14] = tested on: Rattus norvegicus; assay: Antisecretory activity in Sprague-Dawley rat assessed as decrease in volume at 50 mg/kg, po administered 30 mins prior to pylorus ligation measured after 4 hrs relative to control; assay type: functional; set-up: scale not given: the % may be the effect or the level left
[15] = tested on: Rattus norvegicus; assay: Antisecretory activity in Sprague-Dawley rat assessed as decrease in acid output at 50 mg/kg, po administered 30 mins prior to pylorus ligation measured after 4 hrs relative to control; assay type: functional; set-up: scale not given: the % may be the effect or the level left
[16] = tested on: Rattus norvegicus; assay: Antianxiety activity in Long-Evans rat assessed as reduction in motor activity at 4 mg/kg, po after 2 hrs relative to vehicle-treated control; assay type: functional; set-up: scale not given: the % may be the effect or the level left
[17] = tested on: Rattus norvegicus; assay: Antihypertensive activity in spontaneously hypertensive rat model assessed as reduction in blood pressure at 0.3 mg/kg, po after 24 hrs; assay type: functional; set-up: scale not given: the % may be the effect or the level left
[18] = tested on: Rattus norvegicus; assay: Antihypertensive activity in spontaneously hypertensive rat model assessed as reduction in blood pressure at 10 mg/kg, po after 3 hrs; assay type: functional; set-up: scale not given: the % may be the effect or the level left
[19] = tested on: Rattus norvegicus; assay: Antihypertensive activity in spontaneously hypertensive rat model assessed as reduction in blood pressure at 0.3 mg/kg, po after 3 hrs; assay type: functional; set-up: scale not given: the % may be the effect or the level left
[20] = tested on: Rattus norvegicus; assay: Antihypertensive activity in spontaneously hypertensive rat model assessed as reduction in blood pressure at 10 mg/kg, po after 24 hrs; assay type: functional; set-up: scale not given: the % may be the effect or the level left
[21] = tested on: Rattus norvegicus; assay: Antipsychotic activity in rat assessed as reduction of methamphetamine-induced hyperactivity at 20 mg/kg, po administered prior to methamphetamine challenge relative to vehicle-treated control; assay type: functional; set-up: scale not given: the % may be the effect or the level left
[22] = tested on: Rattus norvegicus; assay: Antiulcer activity in albino Sprague-Dawley rat reserpine ulcer model assessed as prevention of reserpine-induced gastric lesions by measuring ulcer index scores at 10 mg/kg, po administered 30 mins prior to reserpine challenge measured after 6 hrs; assay type: functional; conditions: Stomach
[23] = Acute toxicity in po dosed mouse; assay type: organism-based; conditions: in vivo
[24] = tested on: Rattus norvegicus; assay: Antiulcer activity in albino Sprague-Dawley rat shay ulcer model assessed as ulcer index scores at 50 mg/kg administered intraduodenally post pyloric ligation measured after 18.5 hrs relative to vehicle-treated control; assay type: functional; conditions: route intraduodenal
[25] = tested on: Rattus norvegicus; assay: Antiulcer activity in albino Sprague-Dawley rat reserpine ulcer model assessed as prevention of reserpine-induced gastric lesions by measuring ulcer index scores at 50 mg/kg, po administered 30 mins prior to reserpine challenge measured after 6 hrs; assay type: functional, Stomach
[26] = tested on: Mus musculus; assay: Analgesic activity in po dosed mouse assessed as inhibition of acetic acid-induced writhing administered 30 mins prior to acetic acid challenge measured after 5 mins for 20 mins; assay type: functional
[27] = tested on: Felis catus; assay: Hypnotic activity in cat assessed as increase in non-REM sleep time at 0.25 mg/kg administered orally through diet measured for 12 hrs by EEG analysis; assay type: functional; conditions: route oral
[28] = tested on: Rattus norvegicus; assay: Antianxiety activity in Long-Evans rat assessed as reduction in motor activity at 1 mg/kg, po after 2 hrs relative to vehicle-treated control; assay type: functional; set-up: scale not given: the % may be the effect or the level left
[29] = tested on: Mus musculus; assay: Analgesic activity in mouse assessed as inhibition of acetic acid-induced writhing at 40 mg/kg, po administered 30 mins prior to acetic acid challenge measured after 5 mins for 20 mins; assay type: functional
[30] = tested on: Rattus norvegicus; assay: Antianxiety activity in Long-Evans rat assessed as reduction in motor activity at 5 mg/kg, po after 2 hrs relative to vehicle-treated control; assay type: functional; set-up: scale not given: the % may be the effect or the level left
[31] = tested on: Rhesus monkey; assay: Antianxiety activity in po dosed rhesus monkey assessed as antiagressive behavior measured every hour post dosing; assay type: functional; conditions: Macaca mulatta, read-out: MED
[32] = tested on: Rattus norvegicus; assay: Antipsychotic activity in rat assessed as reduction of methamphetamine-induced hyperactivity at 5 mg/kg, po administered prior to methamphetamine challenge relative to vehicle-treated control; assay type: functional; set-up: scale not given: the % may be the effect or the level left
[33] = tested on: Rattus norvegicus; assay: Antihypertensive activity in spontaneously hypertensive rat model assessed as reduction in blood pressure at 30 mg/kg, po after 3 hrs; assay type: functional; set-up: scale not given: the % may be the effect or the level left
[34] = tested on: Rhesus monkey; assay: Antianxiety activity in rhesus monkey assessed as antiagressive behavior at 10 mg/kg, po measured every hour post dosing; assay type: functional, organism-based; set-up: dose 10 mg/kg; conditions: Macaca mulatta
[35] = tested on: Rattus norvegicus; assay: Antihypertensive activity in spontaneously hypertensive rat model assessed as reduction in blood pressure at 30 mg/kg, po after 24 hrs; assay type: functional; set-up: scale not given: the % may be the effect or the level left
[36] = tested on: Rattus norvegicus; assay: Antidiarrheal activity in Charles River rat assessed as inhibition of castor oil-induced diarrhea by measuring protected animals at 0.05 mg/kg, po administered 1 hr prior to castor oil challenge measured after 1 hr relative to vehicle-treated control; assay type: functional
[37] = tested on: Rattus norvegicus; assay: Antidiarrheal activity in Charles River rat assessed as inhibition of castor oil-induced diarrhea by measuring protected animals at 0.2 mg/kg, po administered 1 hr prior to castor oil challenge measured after 1 hr relative to vehicle-treated control; assay type: functional
[38] = tested on: Rattus norvegicus; assay: Antidiarrheal activity in Charles River rat assessed as inhibition of castor oil-induced diarrhea by measuring protected animals at 0.1 mg/kg, po administered 1 hr prior to castor oil challenge measured after 1 hr relative to vehicle-treated control; assay type: functional
[39] = tested on: Rattus norvegicus; assay: Antianxiety activity in Long-Evans rat assessed as reduction in motor activity at 10 mg/kg, po after 2 hrs relative to vehicle-treated control; assay type: functional; set-up: scale not given: the % may be the effect or the level left
[40] = tested on: Mus musculus; assay: Antidepressant activity in po dosed mouse assessed as potentiation of DOPA-induced effect administered 4 hrs prior to DOPA challenge; assay type: functional; conditions: read-out: MED
[41] = tested on: Mus musculus; assay: Antianxiety activity in albino BALB/cJ mouse assessed as reduction in footshock-induced fighting behavior at 5 mg/kg, po after 30 to 90 mins; assay type: functional; set-up: scale not given: the % may be the effect or the level left

C#CCN1CCC2=C(C1)c1c(O)cc(C(C)CCCc3ccc(F)cc3)cc1OC2(C)C (stereo unspecified)
minimal effective dose [1]: 1 mg/kg | Time [2]: -20 min | Activity [3]: 8% | Time [4]: 99 min | Activity [5]: Active | Activity [6]: 22.2% | UI [7]: 1.7 | ED50 [8]: 3.7 mg/kg | Time [9]: 45 min | Activity [10]: 47% | Activity [11]: 12.8% | UI [12]: 1.4 | inhibition in vivo at 0.5 mg/kg [13]: 53% | Activity [14]: 33.3% | Activity [15]: 42.9% | Activity [16]: 77% | Activity [17]: 15% | Activity [18]: 30% | Activity [19]: 22% | Activity [20]: 15% | Activity [21]: 34% | Activity [22]: inactive | LD50 [23]: ≥ 1000 mg/kg | UI [24]: 1.3 | UI [25]: 1.5 | ED50 [26]: 5.3 mg/kg | Time [27]: 45 min | Activity [28]: 60%

CC(CCCc1ccc(F)cc1)c1cc(O)c2c(c1)OC(C)(C)C1=C2CCC1 (stereo unspecified)
minimal effective dose [1]: 10 mg/kg | inhibition in vivo at 40 mg/kg [29]: 22% | Activity [10]: 47% | inhibition in vivo at 0.5 mg/kg [13]: 20% | Activity [30]: 41% | minimal effective dose [31]: 10 mg/kg | Activity [18]: 3% | Activity [20]: 30% | LD50 [23]: ≥ 1000 mg/kg | Activity [32]: 58%

CC1CCC2=C(C1)c1c(O)cc(C(C)CCCN(C)C)cc1OC2(C)C (stereo unspecified)
inhibition in vivo at 40 mg/kg [29]: 18% | Activity [33]: 10% | Activity [10]: 38% | Activity [30]: 12% | Activity [34]: inactive | Activity [18]: 9% | Activity [20]: 13% | Activity [35]: 6% | LD50 [23]: ≥ 1000 mg/kg | Activity [32]: 20%

CCOC(=O)C1(c2ccccc2)CCN(CCC(C#N)(c2ccccc2)c2ccccc2)CC1 [DIPHENOXYLATE HYDROCHLORIDE]
inhibition in vivo at 0.05 mg/kg [36]: 46% | inhibition in vivo at 0.2 mg/kg [37]: 95% | inhibition in vivo at 0.1 mg/kg [38]: 67%

Br.CC(CCCc1ccc(F)cc1)c1cc(O)c2c(c1)OC(C)(C)C1=C2C2CCN1CC2 (stereo unspecified)
Activity [39]: 46% | minimal effective dose [1]: 1 mg/kg | minimal effective dose [40]: 20 mg/kg | inhibition in vivo at 40 mg/kg [29]: 32% | inhibition in vivo at 0.5 mg/kg [13]: 10% | Activity [30]: 23% | minimal effective dose [31]: 1 mg/kg | Activity [41]: 23% | LD50 [23]: ≥ 1000 mg/kg | Activity [32]: 4%

From ChEMBL document CHEMBL3272295, “Drugs derived from cannabinoids. 5. delta6a,10a-Tetrahydrocannabinol and heterocyclic analogs containing aromatic side chains” (J Med Chem, 1976)
